What is called EC50 is the concentration giving half of the maximal effect.

For the first test, the system named is U2OS_Bim cells. Briefly: Apoptosis inhibition assay (Bim-induced apoptosis, cell viability by ATP level). Conditions: U2OS_Bim cells; estimated (*Est.) / preliminary results; numbering of Tables 4a/4b; read-out: EC50. Format: cell-based. In short, it runs like this: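 Apoptosis was triggered by doxycycline (0.1 μg/mL) induction of Bim, one hour after compound addition to U2OS_Bim cells. Survival was measured after 24 h from cellular ATP (CellTiter-Glo), relative to DMSO, with zVAD at 20 μM as rescue control. Data are duplicate means, some estimated from preliminary results.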
Turning to `COc1ccc(Cn2cc(-c3cc(C(F)F)nc(S(=O)(=O)CCCOCc4ccccc4)n3)ccc2=O)cc1OC` [Compound 272, 5-(2-((3-(benzyloxy)propyl)sulfonyl)-6-(difluoromethyl)pyrimidin-4-yl)-1-(3,4-dimethoxybenzyl)pyridin-2 (1H)-one], the half-maximal effective concentration (EC50) is 0.001 to 1 µM.

The same test, now with this note: U2OS_Bim cells; estimated based on preliminary results; numbering of Tables 4a/4b; read-out: EC50.
Take `CS(=O)(=O)c1nc(-c2ccc(=O)n(Cc3ccc4nccnc4c3)c2)cc(C(F)(F)F)n1` [Compound 244]: the EC50 was less than 10 µM.
The same measure, in the same setting: under `C[S+]([O-])c1nc(-c2ccc(=O)n(Cc3ccc4nccnc4c3)c2)cc(C(F)(F)F)n1` (stereo not shown) [Compound 245] stands less than 10 µM; under `CS(=O)(=O)c1nc(-c2ccc(=O)n(Cc3ccc4ncccc4c3)c2)cc(C(F)(F)F)n1` [Compound 246], less than 10 µM.
The same measure, in the same setting: to `C[S+]([O-])c1nc(-c2ccc(=O)n(Cc3ccc4ncccc4c3)c2)cc(C(F)(F)F)n1` (stereo not shown) [Compound 247] belongs less than 10 µM.
Same read-out and setting: to `CS(=O)(=O)c1nc(-c2ccc(=O)n(Cc3ccc4cnccc4c3)c2)cc(C(F)(F)F)n1` [Compound 248] belongs less than 10 µM; to `C[S+]([O-])c1nc(-c2ccc(=O)n(Cc3ccc4cnccc4c3)c2)cc(C(F)(F)F)n1` (stereo not shown) [Compound 249], less than 10 µM; to `CS(=O)(=O)c1nc(-c2ccc(=O)n(Cc3ccc4ccncc4c3)c2)cc(C(F)(F)F)n1` [Compound 250], less than 10 µM.
As for `C[S+]([O-])c1nc(-c2ccc(=O)n(Cc3ccc4ccncc4c3)c2)cc(C(F)(F)F)n1` (stereo not shown) [Compound 251], the EC50 was less than 10 µM.
As to `CS(=O)(=O)c1nc(-c2ccc(=O)n(Cc3ccc4cccnc4c3)c2)cc(C(F)(F)F)n1` [Compound 252], the EC50 is less than 10 µM.
For `C[S+]([O-])c1nc(-c2ccc(=O)n(Cc3ccc4cccnc4c3)c2)cc(C(F)(F)F)n1` (stereo not shown) [Compound 253], the EC50 was less than 10 µM.
On the same count and under the same terms, under `CS(=O)(=O)c1nc(-c2ccc(=O)n(CC3=Cc4ccccc4C3)c2)cc(C(F)(F)F)n1` [Compound 254] stands less than 10 µM.
For `C[S+]([O-])c1nc(-c2ccc(=O)n(CC3=Cc4ccccc4C3)c2)cc(C(F)(F)F)n1` (stereo not shown) [Compound 255], the EC50 was less than 10 µM.
The same measure, in the same setting: under `CS(=O)(=O)c1nc(-c2ccc(=O)n(Cn3ccc4ccccc43)c2)cc(C(F)(F)F)n1` [Compound 256] stands less than 10 µM; under `C[S+]([O-])c1nc(-c2ccc(=O)n(Cn3ccc4ccccc43)c2)cc(C(F)(F)F)n1` (stereo not shown) [Compound 257], less than 10 µM; under `COc1cn(Cn2cc(-c3cc(C(F)(F)F)nc(S(C)(=O)=O)n3)ccc2=O)cc1OC` [Compound 258], less than 10 µM.
Take `COc1cn(Cn2cc(-c3cc(C(F)(F)F)nc([S+](C)[O-])n3)ccc2=O)cc1OC` (stereo not shown) [Compound 259]: the EC50 is less than 10 µM.
Still for that read-out and setting: to `COc1ccn(Cn2cc(-c3cc(C(F)(F)F)nc(S(C)(=O)=O)n3)ccc2=O)c1` [Compound 260] belongs less than 10 µM.
Same read-out and setting: to `COc1ccn(Cn2cc(-c3cc(C(F)(F)F)nc([S+](C)[O-])n3)ccc2=O)c1` (stereo not shown) [Compound 261] belongs less than 10 µM.
Same read-out and setting: to `CCc1cc(Cn2cc(-c3cc(C(F)(F)F)nc(S(C)(=O)=O)n3)ccc2=O)ccc1OC` [Compound 262] belongs less than 10 µM.
As for `CCc1cc(Cn2cc(-c3cc(C(F)(F)F)nc([S+](C)[O-])n3)ccc2=O)ccc1OC` (stereo not shown) [Compound 263], the concentration giving a half-maximal response (EC50) is less than 10 µM.
Same read-out and setting: to `CCc1ccc(Cn2cc(-c3cc(C(F)(F)F)nc(S(C)(=O)=O)n3)ccc2=O)cc1OC` [Compound 264] belongs less than 10 µM; to `CCc1ccc(Cn2cc(-c3cc(C(F)(F)F)nc([S+](C)[O-])n3)ccc2=O)cc1OC` (stereo not shown) [Compound 265], less than 10 µM; to `CCc1ccc(Cn2cc(-c3cc(C(F)(F)F)nc(S(C)(=O)=O)n3)ccc2=O)cc1CC` [Compound 266], less than 10 µM.
Still for that read-out and setting: under `CCc1ccc(Cn2cc(-c3cc(C(F)(F)F)nc([S+](C)[O-])n3)ccc2=O)cc1CC` (stereo not shown) [Compound 267] stands less than 10 µM; under `CCOc1cccc(Cn2cc(-c3cc(C(F)(F)F)nc([S+](C)[O-])n3)ccc2=O)c1` (stereo not shown) [Compound 268], less than 10 µM.
Still for that read-out and setting: to `CCC(=O)c1cc(-c2ccc(=O)n(Cc3ccc(OC)c(OC)c3)c2)nc(S(C)(=O)=O)n1` [Compound 269, 1-(3,4-dimethoxybenzyl)-5-(2-(methylsulfonyl)-6-propionylpyrimidin-4-yl)pyridin-2 (1H)-one] belongs less than 10 µM; to `CCC(F)(F)c1cc(-c2ccc(=O)n(Cc3ccc(OC)c(OC)c3)c2)nc(S(C)(=O)=O)n1` [Compound 270, 5-(6-(1,1-difluoropropyl)-2-(methylsulfonyl)pyrimidin-4-yl)-1-(3,4-dimethoxybenzyl)pyridin-2 (1H)-one], less than 10 µM; to `COc1ccc(Cn2cc(-c3cc(C(=O)c4ccccc4)nc(S(C)(=O)=O)n3)ccc2=O)cc1OC` [Compound 271, 5-(6-benzoyl-2-(methylsulfonyl)pyrimidin-4-yl)-1-(3,4-dimethoxybenzyl)pyridin-2 (1H)-one], less than 10 µM.
Regarding `COc1ccc(Cn2cc(-c3cc(C(F)F)nc(S(=O)(=O)CCCO)n3)ccc2=O)cc1OC` [Compound 273, 5-(6-(difluoromethyl)-2-((3-hydroxypropyl)sulfonyl)pyrimidin-4-yl)-1-(3,4-dimethoxybenzyl)pyridin-2 (1H)-one], the EC50 is 1 to 10 µM.
On the same count and under the same terms, under `COc1ccc(OC2CCCN(c3cc(C(F)(F)F)nc(S(C)(=O)=O)n3)C2)cc1OC` (stereo not shown) [Compound 274, 4-(3-(3,4-dimethoxyphenoxy)piperidin-1-yl)-2-(methylsulfonyl)-6-(trifluoromethyl)pyrimidine] stands less than 100 µM.

The test is the same for the next values; noted with them: U2OS_Bim cells; means of duplicates; numbering of Tables 4a/4b; read-out: EC50.
As to `COc1ccc(Cn2cc(-c3cc(=O)n(C)c(S(C)(=O)=O)n3)ccc2=O)cc1OC` [Compound 275, 6-(1-(3,4-dimethoxybenzyl)-6-oxo-1,6-dihydropyridin-3-yl)-3-methyl-2-(methylsulfonyl)pyrimidin-4 (3H)-one], the EC50 was less than 100 µM.
Regarding `COc1ccc(Cn2cc(-c3cc(C(F)(F)F)nc(S(=O)(=O)CCCCO)n3)ccc2=O)cc1OC` [Compound 276, 1-(3,4-dimethoxybenzyl)-5-(2-((4-hydroxybutyl)sulfonyl)-6-(trifluoromethyl)pyrimidin-4-yl)pyridin-2 (1H)-one], the concentration giving a half-maximal response (EC50) was in the range of 0.001 to 1 µM.
Still for that read-out and setting: under `COc1ccc(Cn2cc(-c3cc(C(F)F)nc([S+]([O-])CCC(OCc4ccccc4)c4ccccc4)n3)ccc2=O)cc1OC` (stereo not shown) [Compound 277, 5-(2-((3-(benzyloxy)-3-phenylpropyl)sulfinyl)-6-(difluoromethyl)pyrimidin-4-yl)-1-(3,4-dimethoxybenzyl)pyridin-2 (1H)-one] stands 0.001 to 1 µM.
The same measure, in the same setting: to `COc1ccc(Cn2cc(-c3cc(C(F)F)nc(S(=O)(=O)CCC(OCc4ccccc4)c4ccccc4)n3)ccc2=O)cc1OC` (stereo not shown) [Compound 278, 5-(2-((3-(benzyloxy)-3-phenylpropyl)sulfonyl)-6-(difluoromethyl)pyrimidin-4-yl)-1-(3,4-dimethoxybenzyl)pyridin-2 (1H)-one] belongs 0.001 to 1 µM.
On the same count and under the same terms, under `COc1ccc(Cn2cc(-c3cc(C(F)F)nc(S(=O)(=O)CCC(Cl)c4ccccc4)n3)ccc2=O)cc1OC` (stereo not shown) [Compound 279, 5-(2-((3-chloro-3-phenylpropyl)sulfonyl)-6-(difluoromethyl)pyrimidin-4-yl)-1-(3,4-dimethoxybenzyl)pyridin-2 (1H)-one] stands 0.001 to 1 µM; under `COc1ccc(Cn2cc(-c3cc(C(F)(F)F)nc([S+]([O-])CCC(OCc4ccccc4)c4ccccc4)n3)ccc2=O)cc1OC` (stereo not shown) [Compound 280, 5-(2-((3-(benzyloxy)-3-phenylpropyl)sulfinyl)-6-(trifluoromethyl)pyrimidin-4-yl)-1-(3,4-dimethoxybenzyl)pyridin-2 (1H)-one], 0.001 to 1 µM.
Regarding `COc1ccc(Cn2cc(-c3cc(C(F)(F)F)nc(S(=O)(=O)CCC(OCc4ccccc4)c4ccccc4)n3)ccc2=O)cc1OC` (stereo not shown) [Compound 281, 5-(2-((3-(benzyloxy)-3-phenylpropyl)sulfonyl)-6-(trifluoromethyl)pyrimidin-4-yl)-1-(3,4-dimethoxybenzyl)pyridin-2 (1H)-one], the EC50 lay in the range of 0.001 to 1 µM.
Same read-out and setting: under `COc1ccc(Cn2cc(-c3cc(CF)nc(S(=O)(=O)CCC(OCc4ccccc4)c4ccccc4)n3)ccc2=O)cc1OC` (stereo not shown) [Compound 282, 5-(2-((3-(benzyloxy)-3-phenylpropyl)sulfonyl)-6-(fluoromethyl)pyrimidin-4-yl)-1-(3,4-dimethoxybenzyl)pyridin-2 (1H)-one] stands 0.001 to 1 µM.
Still for that read-out and setting: under `COc1ccc(Cn2cc(-c3cc(C(F)F)nc([S+]([O-])CCC(OCc4ccccc4F)c4ccccc4)n3)ccc2=O)cc1F` (stereo not shown) [Compound 283, 5-(6-(difluoromethyl)-2-(3-(2-fluorobenzyloxy)-3-phenylpropylsulfinyl)pyrimidin-4-yl)-1-(3-fluoro-4-methoxybenzyl)pyridin-2 (1H)-one] stands 0.001 to 1 µM; under `COc1ccc(Cn2cc(-c3cc(C(F)F)nc(S(=O)(=O)CCC(OCc4ccccc4F)c4ccccc4)n3)ccc2=O)cc1F` (stereo not shown) [Compound 284, 5-(6-(difluoromethyl)-2-(3-(2-fluorobenzyloxy)-3-phenylpropylsulfonyl)pyrimidin-4-yl)-1-(3-fluoro-4-methoxybenzyl)pyridin-2 (1H)-one], 0.001 to 1 µM; under `COc1ccc(Cn2cc(-c3cc(C(F)F)nc(S(=O)(=O)CCC(OCc4ccc(F)cc4F)c4ccccc4)n3)ccc2=O)cc1F` (stereo not shown) [Compound 286, 5-(2-(3-(2,4-difluorobenzyloxy)-3-phenylpropylsulfonyl)-6-(difluoromethyl)pyrimidin-4-yl)-1-(3-fluoro-4-methoxybenzyl)pyridin-2 (1H)-one], 0.001 to 1 µM.
Still for that read-out and setting: under `COc1ccc(Cn2cc(-c3cc(C(F)F)nc(S(=O)(=O)CCC(O)c4ccccc4)n3)ccc2=O)cc1F` (stereo not shown) [Compound 287, 5-(6-(difluoromethyl)-2-((3-hydroxy-3-phenylpropyl)sulfonyl)pyrimidin-4-yl)-1-(3-fluoro-4-methoxybenzyl)pyridin-2 (1H)-one] stands 0.001 to 1 µM.
